According to ChEMBL document CHEMBL1201862, “PubChem BioAssay data set” (2004):
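Exposure lasted 48 hours, with cells grown in 96-well plates and compounds tested at five concentrations. GI50 marks 50% less growth.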 The source made the active and inactive calls. Rule as the data show it: active = GI50 up to about 1.1 µM and inactive = higher.

Experiments:
Assay in all cases: DTP human tumour cell line panel, 48 h
PC-3 = system: PC-3
HCT-15 = system: HCT-15
MDA-N = system: MDA-N
HT-29 = system: HT-29
Malme-3M = system: Malme-3M
KM12 = system: KM12
OVCAR-3 = system: OVCAR-3
RXF 393 = system: RXF 393
BT-549 = system: BT-549
A498 = system: A498
SNB-75 = system: SNB-75
CCRF-CEM = system: CCRF-CEM
SK-MEL-2 = system: SK-MEL-2
HCT-116 = system: HCT-116
OVCAR-8 = system: OVCAR-8
SF-268 = system: SF-268
RPMI-8226 = system: RPMI-8226
MOLT-4 = system: MOLT-4
TK-10 = system: TK-10

Row | Structure (SMILES) | GI50 (PC-3) | GI50 (HCT-15) | GI50 (MDA-N) | GI50 (HT-29) | GI50 (Malme-3M) | GI50 (KM12) | GI50 (OVCAR-3) | GI50 (RXF 393) | GI50 (BT-549) | GI50 (A498) | GI50 (SNB-75) | GI50 (CCRF-CEM) | GI50 (SK-MEL-2) | GI50 (HCT-116) | GI50 (OVCAR-8) | GI50 (SF-268) | GI50 (RPMI-8226) | GI50 (MOLT-4) | GI50 (TK-10)
1 | CC(=O)OC(C)c1cc2c(s1)C(=O)c1ccsc1C2=O (centres undefined) | 0.041 µM (active) | 0.124 µM | 0.0206 µM (active) | 0.17 µM (active) | 0.102 µM (active) | 0.169 µM (active) | 0.0405 µM (active) | 0.206 µM (active) | 0.167 µM (active) | 1.82 µM (inactive) | 0.148 µM (active) | 0.204 µM (active) | 0.483 µM (active) | 0.226 µM (active) | 0.228 µM (active) | 0.213 µM (active) | 0.0826 µM (active) | 0.262 µM (active) | 1.22 µM (inactive)
2 | S=c1ssc2c3ssc(=S)c3n(Cc3ccccc3)c12 | 74.6 µM (inactive) | 39.3 µM | > 100 µM (inactive) | > 100 µM (inactive) | > 100 µM (inactive) | > 100 µM (inactive) | > 100 µM (inactive) | 0.494 µM (active) | > 100 µM (inactive) | > 100 µM (inactive) | 98.4 µM (inactive) | 17.2 µM (inactive) | > 100 µM (inactive) | > 100 µM (inactive) | 74.8 µM (inactive) | 59.2 µM (inactive) | > 100 µM (inactive) | 4.9 µM (inactive) | > 100 µM (inactive)
3 | Oc1ccc2c(c1)OCC(O)(c1ccccc1O)C2 (centres undefined) | > 100 µM (inactive) | > 100 µM | > 100 µM (inactive) | > 100 µM (inactive) | – | > 100 µM (inactive) | > 100 µM (inactive) | > 100 µM (inactive) | > 100 µM (inactive) | > 100 µM (inactive) | 61.4 µM (inactive) | > 100 µM (inactive) | > 100 µM (inactive) | > 100 µM (inactive) | > 100 µM (inactive) | > 100 µM (inactive) | > 100 µM (inactive) | > 100 µM (inactive) | > 100 µM (inactive)
4 | CCOC(=O)c1cc([N+](=O)[O-])cc([N+](=O)[O-])c1Sc1[nH]cnc2ncnc1-2 | 3.73 µM (inactive) | 4.33 µM | 1.82 µM (inactive) | 2.37 µM (inactive) | – | 5.25 µM (inactive) | 1.12 µM (active) | 1.82 µM (inactive) | 2.24 µM (inactive) | 12.2 µM (inactive) | 10.3 µM (inactive) | 0.462 µM (active) | 2.93 µM (inactive) | 2.12 µM (inactive) | 1.93 µM (inactive) | 3.32 µM (inactive) | 1.65 µM (inactive) | 1.24 µM (inactive) | 4.5 µM (inactive)
5 | CCOC(=O)N1c2ccccc2S(=O)(=O)c2ccccc21 | > 100 µM (inactive) | > 100 µM | > 100 µM (inactive) | > 100 µM (inactive) | – | > 100 µM (inactive) | > 100 µM (inactive) | > 100 µM (inactive) | > 100 µM (inactive) | > 100 µM (inactive) | – | > 100 µM (inactive) | > 100 µM (inactive) | > 100 µM (inactive) | > 100 µM (inactive) | > 100 µM (inactive) | – | > 100 µM (inactive) | > 100 µM (inactive)
6 | Cc1nc2c(ccc3[nH]c4ccccc4c32)s1 | 17.7 µM (inactive) | 18.8 µM | 31.1 µM (inactive) | 16.9 µM (inactive) | 31.4 µM (inactive) | 25.5 µM (inactive) | 20.6 µM (inactive) | 29.8 µM (inactive) | 19.1 µM (inactive) | 17.8 µM (inactive) | 32.9 µM (inactive) | 18.8 µM (inactive) | 19.9 µM (inactive) | 17.4 µM (inactive) | 30.1 µM (inactive) | 29.2 µM (inactive) | – | 12.6 µM (inactive) | 29.5 µM (inactive)
7 | Nc1ncc2c(n1)-c1ccccc1OC2NC1CC1 (centres undefined) | > 100 µM (inactive) | > 100 µM | > 100 µM (inactive) | > 100 µM (inactive) | – | > 100 µM (inactive) | > 100 µM (inactive) | > 100 µM (inactive) | > 100 µM (inactive) | > 100 µM (inactive) | > 100 µM (inactive) | > 100 µM (inactive) | > 100 µM (inactive) | > 100 µM (inactive) | > 100 µM (inactive) | > 100 µM (inactive) | > 100 µM (inactive) | > 100 µM (inactive) | > 100 µM (inactive)
8 | S=C(S)N1CCN(c2ccc(Cl)c(Cl)c2)CC1 | 19.6 µM (inactive) | 34.2 µM | 19.3 µM (inactive) | 20.8 µM (inactive) | 24.2 µM (inactive) | 16.3 µM (inactive) | 21.3 µM (inactive) | 56.9 µM (inactive) | 51.3 µM (inactive) | 18 µM (inactive) | 20.7 µM (inactive) | 13 µM (inactive) | 17 µM (inactive) | 13.9 µM (inactive) | 46.9 µM (inactive) | 31.8 µM (inactive) | 19.5 µM (inactive) | – | 58.6 µM (inactive)
9 | O=c1cnn(C/C=C/CBr)c(=O)[nH]1 | 14.9 µM (inactive) | 18.2 µM | 14.7 µM (inactive) | 13.8 µM (inactive) | 16.4 µM (inactive) | 17.5 µM (inactive) | 25.7 µM (inactive) | 15.5 µM (inactive) | 0.527 µM (active) | 14.9 µM (inactive) | 18.8 µM (inactive) | 15.2 µM (inactive) | 17.1 µM (inactive) | – | 23.1 µM (inactive) | 17.1 µM (inactive) | 5.48 µM (inactive) | 19.6 µM (inactive) | –
10 | CSc1nc(NC2CCCC2)c2cc[nH]c2n1 | 43.5 µM (inactive) | 54.2 µM | 54.3 µM (inactive) | 37.1 µM (inactive) | > 100 µM (inactive) | 54.6 µM (inactive) | 54.1 µM (inactive) | > 100 µM (inactive) | 74.6 µM (inactive) | 22.6 µM (inactive) | – | 47.4 µM (inactive) | – | 35.2 µM (inactive) | 89.1 µM (inactive) | 68.7 µM (inactive) | 33.6 µM (inactive) | 42.4 µM (inactive) | 72.6 µM (inactive)
11 | CCOP(=O)(COCCn1ncc(=O)[nH]c1=O)OCC | > 100 µM (inactive) | > 100 µM | > 100 µM (inactive) | > 100 µM (inactive) | > 100 µM (inactive) | > 100 µM (inactive) | > 100 µM (inactive) | > 100 µM (inactive) | > 100 µM (inactive) | > 100 µM (inactive) | > 100 µM (inactive) | > 100 µM (inactive) | > 100 µM (inactive) | – | > 100 µM (inactive) | > 100 µM (inactive) | > 100 µM (inactive) | > 100 µM (inactive) | > 100 µM (inactive)
12 | COC(=O)C1(C)CCCC2(C)C3CCC4CC3(C=C4CO)CCC12 (centres undefined) | 33.1 µM (inactive) | 17.4 µM | 46.7 µM (inactive) | 16.2 µM (inactive) | 27 µM (inactive) | – | 42.1 µM (inactive) | 56.4 µM (inactive) | 49.3 µM (inactive) | 87.9 µM (inactive) | 37.2 µM (inactive) | 41.7 µM (inactive) | 82.4 µM (inactive) | 30.6 µM (inactive) | 36.9 µM (inactive) | 37.8 µM (inactive) | 24.9 µM (inactive) | 27.8 µM (inactive) | 91.6 µM (inactive)
13 | CSc1c(C#N)c2n(c3ccccc3[n+]2C)c2ncccc12 | 19.1 µM (inactive) | 21.5 µM | 21.2 µM (inactive) | 26.7 µM (inactive) | 19.4 µM (inactive) | 22 µM (inactive) | 22.2 µM (inactive) | 17.9 µM (inactive) | 28.4 µM (inactive) | 25.8 µM (inactive) | 17.3 µM (inactive) | 24.2 µM (inactive) | 20.1 µM (inactive) | 24.2 µM (inactive) | 22.3 µM (inactive) | 29.4 µM (inactive) | 25.4 µM (inactive) | 92.5 µM (inactive) | –
14 | Nc1c(/C=C/c2cc3cc(C4=NCCN4)ccc3o2)[nH]c2cc(C3=NCCN3)ccc12 | 34.6 µM (inactive) | 41.6 µM | 37.8 µM (inactive) | 34.3 µM (inactive) | – | 34.4 µM (inactive) | 35.6 µM (inactive) | 43 µM (inactive) | 43.6 µM (inactive) | > 100 µM (inactive) | 63.5 µM (inactive) | – | > 100 µM (inactive) | 29.4 µM (inactive) | 38.9 µM (inactive) | 46.7 µM (inactive) | 39 µM (inactive) | 28.9 µM (inactive) | 31.6 µM (inactive)
15 | CC(C)CC1NC(=O)C(C(C)C)NC(=O)CC(C)COC(=O)C(CC(C)C)N(C)C(=O)C(C(C)C)NC(=O)C(C(C)C)OC1=O (centres undefined) | > 50 µM (inactive) | > 50 µM | > 50 µM (inactive) | > 50 µM (inactive) | > 50 µM (inactive) | > 50 µM (inactive) | > 50 µM (inactive) | 16.1 µM (inactive) | > 50 µM (inactive) | > 50 µM (inactive) | 10.9 µM (inactive) | 15.2 µM (inactive) | 18.2 µM (inactive) | > 50 µM (inactive) | 34.7 µM (inactive) | > 50 µM (inactive) | – | > 50 µM (inactive) | –
16 | CO[P@@]1(=O)O[C@@H](c2ccccc2)[C@H](O)[C@@]1(O)c1ccccc1 | > 100 µM (inactive) | > 100 µM | > 100 µM (inactive) | 45.6 µM (inactive) | > 100 µM (inactive) | > 100 µM (inactive) | > 100 µM (inactive) | > 100 µM (inactive) | > 100 µM (inactive) | > 100 µM (inactive) | > 100 µM (inactive) | > 100 µM (inactive) | > 100 µM (inactive) | > 100 µM (inactive) | > 100 µM (inactive) | > 100 µM (inactive) | – | 22.8 µM (inactive) | > 100 µM (inactive)
